Source: patent publication US4704400A, “Medicarpin derivatives and analogs” (Merck & Co., Inc., priority 1986, dated 1987)

Legend:
prostaglandin = details: isolated from Dalbergia Odorifera T. Chen.; cited from earlier work
[1] = tested on: thromboxane B2 production in CXBG cells; experiment: Inhibition of CXBG prostoglandin production (thromboxane B2 by enzyme immunoassay, A23187-stimulated cells); format: cell-based, mice; details: A23187 stimulation 10 minutes at 37°, inhibitor preincubated 5 minutes
Protocol: (§1) Representative compounds of Formula I have been tested using the following assay to determine their mammalian leukotriene biosynthesis inhibiting activity and other relevant activities:
(§2) CXBG cells grown intraperitoneally in CB4 B6 /F1 /J mice were washed 5 times in Dulbeccos phosphate buffered saline without calcium or magnesium, suspended in medium 199 (Gibco) at 2×10^6 cells/ml, and incubated 15 minutes at 37°. Inhibitor solutions in methanol were incubated with the cells (10 μl/600 μl cells), for 5 minutes at 37°, and the cells were stimulated with 60 μl A23187 (50 μg/ml) for 10 minutes at 37°. Aliquots were removed for measurement of leukotriene C4 or thromboxane B2 by enzyme immunoassay as previously reported (D. K. Miller, et al., J. Immunological Methods, 81, 169-185, 1985). The percentage inhibition was calculated by the following: [formula]
(§3) IC50 s were determined graphically.

[2] = tested on: leukotriene C4 production in CXBG cells; experiment: Inhibition of CXBG leukotriene production (leukotriene C4 by enzyme immunoassay, A23187-stimulated cells); format: cell-based, mice; details: A23187 stimulation 10 minutes at 37°, inhibitor preincubated 5 minutes
Protocol: as §1, §2, §3

Compound | prostaglandin inhibition (prostaglandin) | IC50, TXB2 [1] [µg/mL] | IC50, LTC4 [2] [µg/mL]
COc1ccc2c(c1)O[C@H]1c3ccc(O)cc3OC[C@@H]21 (relative stereo) [medicarpin] | negative results | – | –
(iso)medicarpin | – | > 5 | 0.1
